Data taken from US12065434B2, “Metabolites of GLP1R agonists” (Pfizer Inc., priority 2020, dated 2024).

Biological target: T1, human GLP-1R (Homo sapiens, UniProt P43220, L260F)
T1 construct: expressed in transfected cells
Test: CHO GLP-1R Clone C6 - Assay 2 (HTRF cAMP agonist assay, low receptor density)
Assay type: cell-based
Details: CHO GLP-1R Clone C6 (low receptor density), arithmetic mean, relative to 1 μM GLP-1
Method: GLP-1R-mediated agonist activity was determined with a cell-based functional assay utilizing an HTRF (Homogeneous Time-Resolved Fluorescence) cAMP detection kit (cAMP HI Range Assay Kit; Cis Bio cat #62AM6PEJ) that measures cAMP levels in the cell. The method is a competitive immunoassay between native cAMP produced by the cells and exogenous cAMP labeled with the dye d2. The tracer binding is visualized by a mAb anti-cAMP labeled with Cryptate. The specific signal (i.e. energy transfer) is inversely proportional to the concentration of cAMP in either a standard or an experimental sample.
The human GLP-1R coding sequence (NCBI Reference Sequence NP_002053.3, including naturally-occurring variant Leu260Phe) was subcloned into pcDNA5-FRT-TO and a clonal CHO cell line stably expressing a low receptor density was isolated using the Flp-In™ T-Rex™ System, as described by the manufacturer (ThermoFisher).
Cells were removed from cryopreservation, re-suspended in 40 mL of Dulbecco's Phosphate Buffered Saline (DPBS—Lonza Cat #17-512Q) and centrifuged at 800×g for 5 minutes at 22° C. The DPBS was aspirated, and the cell pellet was re-suspended in 10 mL of complete growth medium (DMEM:F12 1:1 Mixture with HEPES, L-Gln, 500 mL (DMEM/F12 Lonza Cat #12-719F), 10% heat inactivated fetal bovine serum (Gibco Cat #16140-071), 5 mL of 100× Pen-Strep (Gibco Cat #15140-122), 5 mL of 100× L-Glutamine (Gibco Cat #25030-081), 700 μg/mL Hygromycin (Invitrogen Cat #10687010) and 15 μg/mL Blasticidin (Gibco Cat #R21001). A 1 mL sample of the cell suspension in growth media was counted on a Becton Dickinson ViCell to determine cell viability and cell count per mL. The remaining cell suspension was then adjusted with growth media to deliver 1600 viable cells per well using a Matrix Combi Multidrop reagent dispenser, and the cells were dispensed into a white 384 well tissue culture treated assay plate (Corning 3570). The assay plate was then incubated for 48 hours at 37° C. in a humidified environment (95% O2, 5% CO2)
Varying concentrations of each compound to be tested (in DMSO) were diluted in assay buffer [HBSS with Calcium/Magnesium (Lonza/BioWhittaker cat #10-527F)/0.1% BSA (Sigma Aldrich cat #A7409-1L)/20 mM HEPES (Lonza/BioWhittaker cat #17-737E)] containing 100 μM 3-isobutyl-1-methylxanthin (IBMX; Sigma cat #15879). The final DMSO concentration in the compound/assay buffer mixture is 1%.
After 48 hours, the growth media was removed from the assay plate wells, and the cells were treated with 20 μL of the serially diluted compound in assay buffer for 30 minutes at 37° C. in a humidified environment (95% O2, 5% CO2). Following the 30 minute incubation, 10 μL of labeled d2 cAMP and 10 μL of anti-cAMP antibody (both diluted 1:20 in cell lysis buffer; as described in the manufacturer's assay protocol) were added to each well of the assay plate. The plates were then incubated at room temperature and after 60 minutes, changes in the HTRF signal were read with an Envision 2104 multi-label plate reader using excitation of 330 nm and emissions of 615 and 665 nm. Raw data were converted to nM cAMP by interpolation from a cAMP standard curve (as described in the manufacturer's assay protocol) and the percent effect was determined relative to a saturating concentration of the full agonist GLP-1 (1 μM) included on each plate. EC50 determinations were made from agonist dose response curves analyzed with a curve fitting program using a 4-parameter logistic dose response equation.

T1 sequence (P43220 24-463 L260F): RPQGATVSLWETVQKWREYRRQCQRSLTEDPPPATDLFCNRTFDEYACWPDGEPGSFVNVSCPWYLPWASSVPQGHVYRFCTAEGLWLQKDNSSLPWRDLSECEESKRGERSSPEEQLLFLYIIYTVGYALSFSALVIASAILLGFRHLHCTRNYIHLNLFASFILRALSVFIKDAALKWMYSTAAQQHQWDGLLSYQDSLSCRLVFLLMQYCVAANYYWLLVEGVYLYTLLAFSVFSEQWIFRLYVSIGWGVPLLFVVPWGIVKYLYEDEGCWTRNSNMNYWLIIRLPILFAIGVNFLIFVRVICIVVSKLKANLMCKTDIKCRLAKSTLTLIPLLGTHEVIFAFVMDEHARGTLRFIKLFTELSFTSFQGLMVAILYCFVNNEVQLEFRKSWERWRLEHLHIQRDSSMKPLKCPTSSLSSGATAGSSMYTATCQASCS

Emax: 68%
Structure (SMILES): C[C@]1(c2ccc(Cl)cn2)Oc2cccc(C3CCN(Cc4nc5ccc(C(=O)O[C@@H]6O[C@H](C(=O)O)[C@@H](O)[C@H](O)[C@H]6O)cc5n4C[C@@H]4CCO4)CC3)c2O1 [Metabolite 751b]
